Reference: patent publication US20210161997A1, “TREATING DISEASES VIA TARGETED MODULATION OF GENE SIGNALING NETWORKS” (Camp4 Therapeutics Corporation, priority 2018, published 2021)

Experiments:
Type in all cases: cell-based
[1] = test system: SERPINC1 mRNA; test: Quantitative PCR of SERPINC1 mRNA in mouse hepatocytes treated with compounds
Procedure: (§1) Samples were amplified using Taqman probes from ThermoFisher.
In some examples, RQ Min and RQ Max values are also reported. RQ Min and RQ Max are the minimum and maximum relative levels of gene expression in the test samples, respectively. They were calculated using the confidence level set in the analysis settings and the confidence level was set to one standard deviation (SD). These values were calculated using standard deviation as follows: […].
Compounds were tested in hepatocytes for upregulation of SERPINC1 mRNA for identification of potential treatments of SERPINC1/AT III deficiency.

[2] = test system: SERPINC1 mRNA; test: Quantitative PCR of SERPINC1 mRNA in primary human hepatocytes (Lonza Hu4282) treated with compounds; settings: primary human hepatocytes Lonza Hu4282, quantitative PCR
[3] = test system: NOTCH2; test: RNA-seq of NOTCH2 expression in compound-treated primary human hepatocytes; settings: for NOTCH2 Fold Change (Log2): primary human hepatocytes
Procedure: (§2) Human hepatocytes were obtained from two donors from Massachusetts General Hospital, namely MGH54 and MGH63, and one donor from Lonza, namely HUM4111B. Cryopreserved hepatocytes were cultured in plating media for 16 hours, transferred to maintenance media for 4 hours. Cultured on serum-free media for 2 hours, then a compound was added. The hepatocytes were maintained on the serum-free media for 16 hours prior to gene expression analysis. Primary human hepatocytes were stored in the vapor phase of a liquid nitrogen freezer (about -130° C.). Human hepatocytes cultured as described above were plated in 24-well format, adding 375,000 cells per well in a volume of 500 ul plating medium. Four hours before treatment, cells were washed with PBS and the medium was changed to either: fresh maintenance medium (complete) or modified maintenance medium. Compound stocks were prepared at 1000× final concentration and added in a 2-step dilution to the medium to reduce risk of a compound precipitating out of solution when added to the cells, and to ensure reasonable pipetting volumes. […] The plate was mixed by carefully swirling and after all wells were treated and returned to the incubator overnight. If desired, separate plates/wells were treated with vehicle-only controls and/or positive controls. If using multi-well plates, controls were included on each plate. After about 18 hours, cells were harvested for further analysis, e.g., ChIP-seq, RNA-seq, ATAC-seq, etc. This protocol is a modified version of the following protocols: MagMAX mirVana Total RNA Isolation Kit User Guide (Applied Biosystems #MAN0011131 Rev B.0), NEBNext Poly(A) mRNA Magnetic Isolation Module ([…]), and NEBNext Ultra Directional RNA Library Prep Kit for Illumina ([…]) (New England Biosystems #E74901). […] Two hundred μl of Lysis Binding Mix was used per well of the multiwell plate containing adherent cells (usually a 24-well plate). For mRNA isolation and library prep, the NEBNext Poly(A) mRNA Magnetic Isolation Module and Directional Prep kit was used. RNA isolated from cells above was quantified, and prepared in […] of each sample in 50 μl of nuclease-free water. This protocol may be run in microfuge tubes or in a 96-well plate. […] Genomic alignments were converted to transcriptome alignments based on reference transcript annotations from the Human GENCODE Gene Set release 24 (Harrow et al., Genome Res. […] Standard QC were applied (read integrity, mapping statistics, library complexity, fragment bias) to remove unsatisfactory samples. Differential gene expression was computed using the negative binomial model implemented by DESeq2 version 1.16.1 (Love et al., Genome Biol. (2014) 15(12):550). […] RNA-seq signals were also normalized by read depth and visualized using the UCSC browser. To identify small molecules that modulate target gene expression, primary human hepatocytes were prepared as a monoculture, and at least one small molecule compound was applied to the cells. RNA-seq was performed to determine the effects of the compounds on the expression of the target genes in hepatocytes. Fold change was calculated by dividing the level of expression in the cell system that had been perturbed by the level of expression in an unperturbed system.

[4] = test system: JAG1; test: RNA-seq of JAG1 expression in compound-treated primary human hepatocytes; settings: for JAG1 Fold Change (Log2): primary human hepatocytes; for Significant modulation of JAG1 (in words): summary of Table 6
Procedure: as §2

[5] = test system: ANGPTL3; test: RNA-seq of ANGPTL3 expression in compound-treated primary human hepatocytes; settings: additional compounds (Table 13), linear fold change
Procedure: (§3) Human hepatocytes were obtained from two donors from Massachusetts General Hospital, namely MGH54 and MGH63, and one donor from Lonza, namely HUM4111B. Cryopreserved hepatocytes were cultured in plating media for 16 hours, transferred to maintenance media for 4 hours. Cultured on serum-free media for 2 hours, then a compound was added. The hepatocytes were maintained on the serum-free media for 16 hours prior to gene expression analysis. Primary human hepatocytes were stored in the vapor phase of a liquid nitrogen freezer (about −130° C.).
(§4) Human hepatocytes cultured as described above were plated in 24-well format, adding 375,000 cells per well in a volume of 500 ul plating medium. Four hours before treatment, cells were washed with PBS and the medium was changed to either: fresh maintenance medium (complete) or modified maintenance medium.
(§5) Compound stocks were prepared at 1000× final concentration and added in a 2-step dilution to the medium to reduce risk of a compound precipitating out of solution when added to the cells, and to ensure reasonable pipetting volumes. One at a time, each compound was first diluted 10-fold in warm (about 37° C.) modified maintenance medium (initial dilution=ID), mixed by vortexing, and the ID was diluted 100-fold into the cell culture (e.g. 5.1 ul into 1 well of a 24-well plate containing 0.5 mL medium). The plate was mixed by carefully swirling and after all wells were treated and returned to the incubator overnight. If desired, separate plates/wells were treated with vehicle-only controls and/or positive controls. If using multi-well plates, controls were included on each plate. After about 18 hours, cells were harvested for further analysis, e.g., ChIP-seq, RNA-seq, ATAC-seq, etc.
(§6) This protocol is a modified version of the following protocols: MagMAX mirVana Total RNA Isolation Kit User Guide (Applied Biosystems #MAN0011131 Rev B.0), NEBNext Poly(A) mRNA Magnetic Isolation Module (E7490), and NEBNext Ultra Directional RNA Library Prep Kit for Illumina (E7420) (New England Biosystems #E74901).
(§7) The MagMAX mirVana kit instructions (the section titled “Isolate RNA from cells” on pages 14-17) were used for isolation of total RNA from cells in culture. Two hundred μl of Lysis Binding Mix was used per well of the multiwell plate containing adherent cells (usually a 24-well plate).
(§8) For mRNA isolation and library prep, the NEBNext Poly(A) mRNA Magnetic Isolation Module and Directional Prep kit was used. RNA isolated from cells above was quantified, and prepared in […] of each sample in 50 μl of nuclease-free water. This protocol may be run in microfuge tubes or in a 96-well plate.
All pass filter reads from each sample were mapped against the human genome (assembly GRCh38/GCA_000001405.15 “no alt” analysis set merged with hs38d1/GCA_000786075.2) using two pass mapping via STAR version 2.5.3a (alignment parameters alignIntronMin=20; alignIntronMax=1000000; outFilterMismatchNmax=999; outFilterMismatchNoverLmax=0.05; outFilterType=BySJout; outFilterMultimapNmax=20; alignSJoverhangMin=8; alignSJDBoverhangMin=1; alignMatesGapMax=1000000) (Dobin et al., Bioinformatics (2012) 29(1):15-21). Genomic alignments were converted to transcriptome alignments based on reference transcript annotations from the Human GENCODE Gene Set release 24 (Harrow et al., Genome Res. (2012) 22(9): 1760-1774). Using unique and multimapped transcriptomic alignments, gene-level abundance estimates were computed using RSEM version 1.3.0 (Li and Dewey, BMC Bioinformatics (2011) 12:323) in a strand-aware manner, and including confidence interval sampling calculations, to arrive at posterior mean estimates (PME) of abundances (counts and normalized FPKM—fragments per kilobase of exon per million mapped fragments) from the underlying Bayesian model. Standard QC were applied (read integrity, mapping statistics, library complexity, fragment bias) to remove unsatisfactory samples.

[6] = test system: MECP2 mRNA; test: MECP2 mRNA in primary human hepatocytes (donor 1, donor 2); settings: human hepatocytes donor-1, average fold change; for Human hep donor-1 MECP2 (Avg_FC) 1 uM: compound 1 uM; for Human hep donor-1 MECP2 (Avg_FC) 10 uM: compound 10 uM
Procedure: as §3, §4, §5, §1

[7] = test system: MECP2 mRNA; test: MECP2 mRNA in stellate cells; settings: average fold change; for Stellate MECP2 (Avg_FC) 1 uM: compound 1 uM; for Stellate MECP2 (Avg_FC) 10 uM: compound 10 uM
[8] = test system: UGT1A1; test: RNA-seq of UGT1A1 expression in compound-treated primary human hepatocytes
Procedure: as §3, §4, §5, §6, §7, §8
Standard QC were applied (read integrity, mapping statistics, library complexity, fragment bias) to remove unsatisfactory samples. […] Log 2 fold change and significance values were computed using PME count data (with replicates explicitly modeled versus pan-experiment controls), median ratio normalized, using maximum likelihood estimation rather than maximum a posteriori, and disabling the use of Cook's distance cutoff when determining acceptable adjusted p-values. […] RNA-seq signals were also normalized by read depth and visualized using the UCSC browser.
To identify small molecules that modulate target gene expression, primary human hepatocytes were prepared as a monoculture, and at least one small molecule compound was applied to the cells.
RNA-seq was performed to determine the effects of the compounds on the expression of the target genes in hepatocytes. Fold change was calculated by dividing the level of expression in the cell system that had been perturbed by the level of expression in an unperturbed system. Changes in expression having a p-value ≤0.05 were considered significant.
Significance was defined as an FPKM ≥1, a log 2(fold change) ≥0.5, and a q-value of ≤0.05 for all targets except for CPOX.

| Molecule | NOTCH2 Fold Change (Log2) [3] | JAG1 Fold Change (Log2) [4] | Significant modulation of JAG1 (in words) [4] | ANGPTL3-LINEAR FOLD CHANGE [5] | also measured |
| --- | --- | --- | --- | --- | --- |
| O=C(Nc1c[nH]nc1-c1nc2ccc(CN3CCOCC3)cc2[nH]1)NC1CC1 [AT9283] | – | – | – | – | SERPINC1 mRNA, Mouse Heps, 1 uM ([1]; compound 1 uM): 1.11; SERPINC1 mRNA, Mouse Heps, 10 uM ([1]; compound 10 uM): 1.81; SERPINC1 mRNA, Lonza Hu4282, 1 uM ([2]; compound 1 uM): 0.91; SERPINC1 mRNA, Lonza Hu4282, 10 uM ([2]; compound 10 uM): 2.2 |
| Cc1cc(-c2nc(-c3ccc(OC(F)(F)F)cc3)no2)nn1Cc1ccnc(N2CCN(C3CC3)CC2)c1 [BAY 87-2243] | 0 Log2 | 0.61 Log2 | significantly modulate only JAG1 | – | – |
| Cn1cc(C2=C(c3cn(C4CCN(Cc5ccccn5)CC4)c4ccccc34)C(=O)NC2=O)c2ccccc21 [Enzastaurin] | 0 Log2 | 1.03 Log2 | significantly modulate only JAG1 | 0.2176 | – |
| c1cc(-c2cnn3cc(-c4ccc(N5CCNCC5)cc4)cnc23)c2cccnc2c1 [LDN-212854] | 0 Log2 | 1.47 Log2 | significantly modulate only JAG1 | – | – |
| O=C1NC(=O)C(c2cnc3ccccn23)=C1c1cn2c3c(cc(F)cc13)CN(C(=O)N1CCCCC1)CC2 [LY2090314] | – | – | – | 0.1895 | Human hep donor-1 MECP2 (Avg_FC) 1 uM [6]: 2.43; Human hep donor-1 MECP2 (Avg_FC) 10 uM [6]: 1.94; Stellate MECP2 (Avg_FC) 1 uM [7]: 2.65; Stellate MECP2 (Avg_FC) 10 uM [7]: 2.20 |
| Cc1ccc(C(=O)Nc2ccc(Oc3cc4cnn(C)c4cc3-c3cn[nH]c3)c(F)c2)c(=O)n1-c1ccc(F)cc1 [Merestinib] | 0.62 Log2 | 0.76 Log2 | significantly modulate both JAG1 and NOTCH2 | – | Significant modulation of NOTCH2 (in words) ([3]; summary of Table 6): significantly modulate both JAG1 and NOTCH2; UGT1A1 Fold Change (Log2) [8]: 0.76 Log2 |
| [H]/N=C(/N)N/C(=N/[H])NCCc1ccccc1 [Phenformin] | 0 Log2 | 1.14 Log2 | significantly modulate only JAG1 | – | – |
| COc1ccc(Cl)c(Nc2nc3ccccc3nc2NS(=O)(=O)c2cccc(NC(=O)C(C)(C)N)c2)c1 [Pilaralisib (XL147), Pilaralisib] | – | – | – | 0.2606 | Human hep donor-1 MECP2 (Avg_FC) 1 uM [6]: 1.95; Human hep donor-1 MECP2 (Avg_FC) 10 uM [6]: 1.75; Stellate MECP2 (Avg_FC) 1 uM [7]: 2.28; Stellate MECP2 (Avg_FC) 10 uM [7]: 2.21 |
| BMP4: TGF-beta activator (protein, UniProt P12644 293-408, looked up) Bone morphogenetic protein 4: SPKHHSQRARKKNKNCRRHSLYVDFSDVGWNDWIVAPPGYQAFYCHGDCPFPLADHLNSTNHAIVQTLVNSVNSSIPKACCVPTELSAISMLYLDEYDKVVLKNYQEMVVEGCGCR | 0 Log2 | 0.63 Log2 | significantly modulate only JAG1 | 0.3463 | – |
| GDF2 (BMP9): TGF-beta activator (protein, UniProt Q9UK05 320-429, looked up) Growth/differentiation factor …: SAGAGSHCQKTSLRVNFEDIGWDSWIIAPKEYEAYECKGGCFFPLADDVTPTKHAIVQTLVHLKFPTKVGKACCVPTKLSPISVLYKDDMGVPTLKYHYEGMSVAECGCR | 0 Log2 | 1.03 Log2 | significantly modulate only JAG1 | – | – |
